Among the data in ChEMBL document CHEMBL5042525, “Activation of E6AP/UBE3A-Mediated Protein Ubiquitination and Degradation Pathways by a Cyclic γ-AA Peptide” (J Med Chem, 2022) are Kd, Activity and Stability values, retold here.

Active and inactive are the calls of the source. The calls are words filed in the database; no cut-off is given here.

A short description of data set [1]: Binding affinity to recombinant E6AP HECT domain (unknown origin) expressed in BL21 cells by fluorescence polarization assay. Details: species or system Homo sapiens. On the technique in general: In fluorescence polarisation assays a small probe gives low polarisation when free and higher when bound to something large.
Data set [2] is filed under the species Homo sapiens. Description: Activation of wild type N-terminal Flag-tagged E6AP HECT domain (unknown origin) self-ubiquitination assessed as increase in formation of polyubiquitinated HECT in presence of wild type HA-tagged UB at 10 to 100 uM preincubated for 30 mins followed by UB addition incubated for 2 hrs by SDS PAGE based Western blot analysis. The conditions noted are these: dose 10-100 µM, time 150.0 min. On the technique in general: A western blot detects proteins with antibodies after separation by electrophoresis.

Data set [3] is filed under the species Homo sapiens. Description: Activation of wild type N-terminal Flag-tagged E6AP (unknown origin) mediated UbxD8 substrate ubiquitination in presence of Uba1/Ubch7 at 10 to 100 uM preincubated for 30 mins followed by UB addition incubated for 2 hrs by SDS PAGE based Western blot analysis. The settings on record: dose 10-100 µM, time 2.5 hrs.
The species entered for data set [4] is Homo sapiens. Description: Activation of wild type N-terminal Flag-tagged E6AP (unknown origin) mediated ubiquitination of p53 substrate at 10 to 100 uM in presence of […] E6 and Uba1/Ubch7 preincubated for 30 min followed by UB addition incubated for 2 hrs by SDS PAGE based Western blot analysis. The settings on record: dose 10-100 µM, time 150.0 min.
The species named for data set [5] is Homo sapiens. The experiment in a line: Activation of full length E6AP (unknown origin) self-ubiquitination at 100 uM preincubated for 30 mins followed by UB addition incubated for 2 hrs by SDS PAGE based Western blot analysis.
For data set [6], the species on record is Homo sapiens. The experiment in a line: Activation of wild type N-terminal Flag-tagged E6AP (unknown origin) mediated beta-catenin substrate ubiquitination in presence of Uba1/Ubch7 preincubated for 30 mins followed by UB addition incubated for 2 hrs by SDS PAGE based Western blot analysis. The settings on record: filed as activator, dose 1-100 µM, time 150.0 min.

For data set [7], the system named is HEK293T. The experiment in a line: Activation of E6AP (unknown origin) mediated HHR23A substrate ubiquitination in HEK293T cells at 25 to 50 uM preincubated for 14 hrs followed by addition of MG132 incubated for 12 hrs by SDS PAGE based Western blot analysis. The settings on record: Homo sapiens, filed as activator, dose 25-50 µM, time 26.0 hrs. The format is cell-based.

The species named for data set [8] is Homo sapiens. The experiment in a line: Activation of wild type N-terminal Flag-tagged E6AP HECT domain (unknown origin) self-ubiquitination in presence of Uba1 at 5 uM preincubated for 30 mins followed by UB addition incubated for 2 hrs by SDS PAGE based Western blot analysis. The conditions noted are these: filed as activator, time 2.5 hrs.
The species named for data set [9] is Homo sapiens. Description: Activation of wild type N-terminal Flag-tagged E6AP (unknown origin) mediated UbxD8 substrate ubiquitination in presence of Uba1/Ubch7 preincubated for 30 mins followed by UB addition incubated for 2 hrs by SDS PAGE based Western blot analysis. The settings on record: filed as activator, time 2.5 hrs.
A short description of data set [10]: Stability of the compound in human serum for 24 hrs by HPLC-MS analysis. The data set is classed as ADME, cell-free.
The species entered for data set [11] is Homo sapiens. The experiment in a line: Activation of E6AP (unknown origin) self-ubiquination in presence of UbcH7 at 5 uM preincubated for 30 mins followed by UB addition incubated for 2 hrs by SDS PAGE based Western blot analysis. The conditions noted are these: filed as activator, time 2.5 hrs.
Data set [12] in a line: Stability of the compound in ammonium bicarbonate buffer at pH 7.8 assessed as pronase (unknown origin)-mediated drug degradation for 24 hrs by HPLC-MS analysis. The data set is classed as ADME. The conditions noted are these: human, pH 7.8, 24 h.
The species entered for data set [13] is Homo sapiens. Description: Activation of E6AP (unknown origin) self-ubiquination in presence of wild type HA-tagged UB at 5 uM preincubated for 30 mins followed by UB addition incubated for 2 hrs by SDS PAGE based Western blot analysis. The settings on record: filed as activator, time 150.0 min.
The species entered for data set [14] is Homo sapiens. Description: Activation of wild type N-terminal Flag-tagged E6AP HECT domain (unknown origin) self-ubiquitination in presence of wild type HA-tagged UB at 5 uM preincubated for 30 mins followed by UB addition incubated for 2 hrs by SDS PAGE based Western blot analysis. The conditions noted are these: filed as activator, time 150.0 min.
Data set [15] deals with HEK293T. Description: Activation of E6AP mediated HHR23A degradation in HEK293T cells at 1 to 5 uM preincubated for 14 hrs followed by CHX addition by cycloheximide chase assay. The data set is classed as cell-based. The settings on record: Homo sapiens, filed as activator, dose 1-5 µM.
Data set [16] is filed under the species Homo sapiens. The experiment in a line: Activation of E6AP (unknown origin) self-ubiquination in presence of Uba1 at 5 uM preincubated for 30 mins followed by UB addition incubated for 2 hrs by SDS PAGE based Western blot analysis. The settings on record: filed as activator, time 2.5 hrs.
The subject of data set [17] is HEK293T. The experiment in a line: Activation of E6AP mediated UbxD8 degradation in HEK293T cells at 50 uM preincubated for 14 hrs followed by CHX addition by cycloheximide chase assay. The format is cell-based. The settings on record: Homo sapiens, filed as activator.
Data set [18] is filed under the species Homo sapiens. The experiment in a line: Activation of wild type N-terminal Flag-tagged E6AP HECT domain (unknown origin) self-ubiquitination in presence of UbcH7 at 5 uM preincubated for 30 mins followed by UB addition incubated for 2 hrs by SDS PAGE based Western blot analysis. The conditions noted are these: filed as activator, time 2.5 hrs.
In data set [19] the test system is HEK293T. The experiment in a line: Activation of E6AP mediated HHR23A degradation in HEK293T cells at 50 uM preincubated for 14 hrs followed by CHX addition by cycloheximide chase assay. The data set is classed as cell-based. The conditions noted are these: Homo sapiens, filed as activator.
The species named for data set [20] is Homo sapiens. The experiment in a line: Activation of wild type N-terminal Flag-tagged E6AP (unknown origin) mediated HHR23A substrate ubiquitination in presence of Uba1/Ubch7 preincubated for 30 mins followed by UB addition incubated for 2 hrs by SDS PAGE based Western blot analysis. The conditions noted are these: filed as activator, dose 1-100 µM, time 150.0 min.

Data set [21] relates to HEK293T. The experiment in a line: Activation of E6AP (unknown origin) in HEK293T cells assessed as increase in ubiquitination level of UbxD8 substrate at 25 to 50 uM preincubated for 14 hrs followed by addition of MG132 incubated for 12 hrs by SDS PAGE based Western blot analysis. The format is cell-based. The conditions noted are these: Homo sapiens, filed as activator, dose 25-50 µM, time 26.0 hrs.

On to `C[C@H]1CN(C(=O)CCC(=O)O)CC(=O)N[C@@H](Cc2ccccc2)CN(CC(N)=O)C(=O)CCSCc2ccc(cc2)C(=O)N[C@@H](C)CN(C(=O)Cc2ccc3c(c2)OCO3)CC(=O)N[C@@H](CCC(=O)O)CN(C(=O)CC2CC2)CC(=O)N1`, for which, in data set [1], the Kd entry is “Not Active”. Further, the outcome in the data set filed under Homo sapiens [2], in the data set listed under Homo sapiens [3], in the data set filed under Homo sapiens [4] and in the data set filed under Homo sapiens [5] was inactive.

In the case of `COc1cc(CC(=O)N2CC(=O)N[C@@H](Cc3ccccc3)CN(C(=O)CC3CC3)CC(=O)N[C@@H](CC(C)C)CN(CC(N)=O)C(=O)CCSCc3ccc(cc3)C(=O)N[C@@H](CCCCN)CN(C(=O)Cc3ccc4ccccc4c3)CC(=O)N[C@@H](CC(C)C)C2)cc(OC)c1`, the Activity entry in the data set filed under Homo sapiens [6], in the data set listed under Homo sapiens [9] and in the data set listed under Homo sapiens [20] was “Dose-Dependent Effect” each time. Moreover, the outcome in the data set on HEK293T [7], in the data set filed under Homo sapiens [8], in the data set filed under Homo sapiens [11], in the data set listed under Homo sapiens [13], in the data set listed under Homo sapiens [14] and with HEK293T [15] was Active. Besides, the outcome in the data set listed under Homo sapiens [16], in the data set listed under Homo sapiens [2] (filed as activator), in the data set with HEK293T [17], in the data set filed under Homo sapiens [18], in the data set filed under Homo sapiens [3] (filed as activator) and in the data set with HEK293T [19] was Active. The result with HEK293T [21] and in the data set filed under Homo sapiens [5] (filed as activator) was Active. Also, the Stability entry in [10] and in data set [12] was “Stable” throughout. In [1] (read-out: Kd), the Kd was determined as 218 nM. The result in the data set listed under Homo sapiens [4] was inactive.

For `CC(C)C[C@H]1CN(CC(N)=O)C(=O)CCSCc2ccc(cc2)C(=O)N[C@@H](Cc2ccccc2)CN(C(=O)Cc2ccc3ccccc3c2)CC(=O)N[C@@H](CC(C)C)CN(C(=O)CCC2CCCCC2)CC(=O)N[C@@H](Cc2ccccc2)CN(C(=O)Cc2ccc3c(c2)OCO3)CC(=O)N1`, in [1] (read-out: Kd), the Kd turned out to be 82.2 nM. For the same molecule, the result in the data set listed under Homo sapiens [2], in the data set listed under Homo sapiens [3], in the data set filed under Homo sapiens [4] and in the data set filed under Homo sapiens [5] was inactive.

On to `COc1cc(CC(=O)N2CC(=O)N[C@@H](Cc3ccccc3)CN(C(=O)CC3CC3)CC(=O)N[C@@H](CC(C)C)CN(CC(N)=O)C(=O)CCSCc3ccc(cc3)C(=O)N[C@@H](CCC(=O)O)CN(C(=O)Cc3ccc4c(c3)OCO4)CC(=O)N[C@@H](CC(C)C)C2)cc(OC)c1`, for which the Kd in data set [1] (read-out: Kd) came to 162 nM. The result in the data set listed under Homo sapiens [2], in the data set listed under Homo sapiens [3], in the data set filed under Homo sapiens [4] and in the data set filed under Homo sapiens [5] was inactive.

As to `COc1cc(CC(=O)N2CC(=O)N[C@@H](C)CN(C(=O)Cc3cc(OC)cc(OC)c3)CC(=O)N[C@@H](CC(C)C)CN(CC(N)=O)C(=O)CCSCc3ccc(cc3)C(=O)N[C@@H](Cc3ccccc3)CN(C(=O)Cc3ccc4c(c3)OCO4)CC(=O)N[C@@H](Cc3ccccc3)C2)cc(OC)c1`, the Kd in [1] (read-out: Kd) was 83.4 nM. In addition, the outcome in the data set listed under Homo sapiens [2], in the data set listed under Homo sapiens [3], in the data set filed under Homo sapiens [4] and in the data set filed under Homo sapiens [5] was inactive.

Turning to `C[C@H]1CN(C(=O)Cc2ccc3c(c2)OCO3)CC(=O)N[C@@H](Cc2ccccc2)CN(C(=O)Cc2ccc3ccccc3c2)CC(=O)N[C@@H](CCC(=O)O)CN(C(=O)CC2CC2)CC(=O)N[C@@H](Cc2ccccc2)CN(CC(N)=O)C(=O)CCSCc2ccc(cc2)C(=O)N1`, the Kd in data set [1] (read-out: Kd) was determined as 171 nM. The result in the data set filed under Homo sapiens [2], in the data set filed under Homo sapiens [3], in the data set filed under Homo sapiens [4] and in the data set filed under Homo sapiens [5] was inactive.

Take `CC(C)C[C@H]1CN(C(=O)Cc2ccc3c(c2)OCO3)CC(=O)N[C@@H](CCC(=O)O)CN(C(=O)CCC2CCCCC2)CC(=O)N[C@@H](C)CN(C(=O)CCC(=O)O)CC(=O)N[C@@H](Cc2ccccc2)CN(CC(N)=O)C(=O)CCSCc2ccc(cc2)C(=O)N1`: the Kd entry in data set [1] is “Not Active”. The result in the data set filed under Homo sapiens [2], in the data set listed under Homo sapiens [3], in the data set listed under Homo sapiens [4] and in the data set filed under Homo sapiens [5] was inactive.

Turning to `CC(C)C[C@H]1CN(CC(N)=O)C(=O)CCSCc2ccc(cc2)C(=O)N[C@@H](C)CN(C(=O)Cc2ccc3ccccc3c2)CC(=O)N[C@@H](CC(C)C)CN(C(=O)CCc2ccccc2)CC(=O)N[C@@H](Cc2ccccc2)CN(C(=O)Cc2ccc3c(c2)OCO3)CC(=O)N1`, the Kd in [1] (read-out: Kd) came to 187 nM. Further, the result in the data set listed under Homo sapiens [2], in the data set listed under Homo sapiens [3], in the data set listed under Homo sapiens [4] and in the data set listed under Homo sapiens [5] was inactive.

One may read the Kd as the equilibrium constant for the complex coming apart.
